Entries after “also recorded” stand apart in the source; their conditions may differ.
How the values were obtained:
Assay type in all cases: in vivo, mouse
[1] = tested on: C57BL/6J.OlaaHsd mice; assay: DSS-induced colitis, treatment with arginine, citrulline, NaNO2, fisetin or citrulline plus fisetin; conditions: for weight loss: 1% DSS 6 days; for Histology score for colitis: FIG. 3D; for clinical improvement in colitis severity: evaluated by change in weight, histological score and colon length, vs control
Description: Colitis was induced in Vav1^Cre:As1^f/f mice and CD11c^Cre:As1^f/f with 1.5% DSS and with 0.8% DSS in the Villin^Cre:As1^f/f (wt/vol), (Dextran Sodium Sulfate, MP Biomedicals; molecular weight 36,000-50,000 Da). The powder was dissolved in the drinking water for 6 days, followed by 5 days of supplementing regular water^20. Each group consisted of eight to ten, 8-10 weeks old, male mice. Experiments were repeated at least three times. “f/f”—flox/flox.
Colonoscopy was performed on days 7 and 11 of the experiment to monitor for severity of colitis. For the procedure, a high resolution mouse video endoscopic system was used, which consists of a miniature endoscope (scope 1.9 mm outer diameter), a xenon light source, a triple chip camera, and an air pump to achieve regulated inflation of the mouse bowel (Karl Storz, Tuttlingen, Germany). Mice were anesthetized by the administration of 4-5% of isoflurane in 100% oxygen at a rate of 0.2-0.5 L/min or by the administration of 100 mg/kg Ketamine/10 mg/kg Xylazine mixture IP, after which, the endoscope was introduced via the anus and the colon was carefully insufflated with an air pump before analysis of the colonic mucosa. The endoscopic procedure was viewed on a color monitor and digitally recorded on tape. Colitis was scored according to the Murine endoscopic index of colitis severity (MEICS), considering differences in the thickness of the bowel wall, changes in blood vessel integrity, mucosal surface, stool consistency or the presence of fibrin, scored each between 0 and 3. The cumulative score ranged from 0 (no signs of inflammation) to 15 (signs of severe inflammation)^21.
Mice were treated with 1% (wt/vol) DSS for 6 days, followed by administration of either arginine 1% (wt/vol) solution (Sigma-Aldrich, St. Louis, Mo., catalogue number A8094) in drinking water, citrulline 1% (wt/vol) (L-citrulline, Chem-Impex International), NaNO2 100 mg (Sigma-Aldrich, St. Louis, Mo., catalogue number S2252), or water as control for additional 6 days.
Fisetin was given by intraperitoneal (i.p.) injection (1 mg/animal) in 30 μL of DMSO twice weekly. The control group was injected with 30 μL of DMSO twice weekly. Each group consisted of ten, 8-weeks old, male mice. Experiments were repeated three times.
Histopathology. On the day of sacrifice, colons were removed and their length was measured. Colon was fixed in 2.5% PFA solution overnight at 4° C., then embedded in paraffin, sectioned and stained with H&E. Tissues were examined in a blinded manner by a pathologist and scored on a 0-4 scale based on the parameters of inflammation severity^20.

[2] = tested on: As1; assay: Immunohistochemistry staining of distal colon sections for As1; conditions: after colitis induction, vs control mice with colitis; FIG. 3E, 4A
Description: Four micrometer paraffin embedded tissue sections were deparaffinized and rehydrated. Endogenous peroxidase was blocked with three percent H2O2 in methanol. Sections undergoing for ALS staining were incubated in cold acetone at −20° C. for 7 minutes. For F4/80 and MAC-2 staining, the present inventors performed antigen retrieval in Tris-EDTA pH 9 and 10 mM citric acid pH 6, for 10 minutes, respectively, using a low boiling program in the microwave to break protein cross-links and unmask antigens. After pre-incubation with 20% normal horse serum and 0.2% Triton X-100 for 1 hour at RT (root temperature), sections were incubated with the primary antibodies as follow; ASL (1:100, Abcam, ab97370, CA, USA); F4/80 (1:50, Serotec, Kidllington, UK); Mac-2 (1:400, Cedarlane, N.C., USA). For fluorescent double-staining of ASL and CD11c the mouse anti ASL (1:50 Santa Cruz Biotechnology, Inc. sc-166787, TX, USA) and rabbit anti CD11c (1:50, ab52632) were used. All antibodies were diluted in PBS containing 2% normal horse serum and 0.2% Triton. Sections were incubated overnight at RT followed by 48 hours at 4° C. Sections were washed three times in PBS and incubated with secondary biotinylated IgG at RT (room temperature) for 1.5 hour, washed three times in PBS and incubated with avidin-biotin Complex (Elite-ABC kit, Vector Lab, CA, USA) at RT for additional 90 minutes followed by DAB (Sigma) reaction. For the fluorescent staining the CY2 conjugated anti mouse and CY3 conjugated streptavidin (1:100 and 1:200 respectively, Jackson ImmunoResearch, West Grove, Pa.) were used.

[3] = tested on: C57BL/6J.OlaaHsd mice; assay: DSS-induced colitis, treatment with arginine, citrulline, NaNO2, fisetin or citrulline plus fisetin; conditions: day 12
[4] = tested on: intestine; assay: Tunnel staining of intestine (apoptosis); conditions: colitis mice, citrulline vs control; FIGS. 3F-H
Description: Tunnel staining was performed by using ApopTag kit detection according to manufacturer's instructions (Millipore, CA, USA). Stained sections were examined and photographed by a fluorescence or bright field microscope (Eclipse Ni-U; Nikon, Tokyo, Japan) equipped with Plan Fluor objectives (10; 20×; 40×) connected to a monochrome camera (DS-Qi1, Nikon).

[5] = tested on: enterocytes; assay: FACS analysis of colon epithelial cells (enterocytes) after colitis induction
Description: Colon segment was flushed with cold PBS, longitudinally cut open and rinsed to remove residual luminal contents. Tissue was cut into 3- to 5-mm pieces and incubated in HBSS medium containing EDTA 0.5 M and Hepes 10 mM at 37° C. for 20 minutes, shaken at 180 rpm, to separate epithelial fraction. Supernatant was centrifuged at 4° C. at 500 g for 10 minutes. Recovered tissue was digested in HBSS medium with 2% fetal bovine serum (FBS), 0.05% collagenase II and 0.05% DNase I (Sigma) for 40 minutes. at 37° C., shaken at 180 rpm. LP cells were filtered through 65 μm mesh and centrifuged at 4° C. at 500 g for 10 minutes. The present inventors prepared single cell suspensions from mouse colon by enzymatic digestion and analyzed by polychromatic flow cytometry. Samples were stained with conjugated antibodies or matching isotype controls according to manufacturer's instructions. Data were acquired on an LSRII (BD Biosciences) or FACSCalibur instrument (Becton-Dickinson) with CellQuest software, with a MacsQuant instrument (Miltenyi, Bergisch Gladbach, Germany), and analyzed using BD FACSDiva 6 or FlowJo software (version 7.6.5, or version vX.0.7 Tree Star Inc) or MacsQuant. Colon cells were stained for 30 min at 4° C. in flow cytometry buffer (PBS, 10% FCS and 0.02% azide). For antigens that require intracellular staining (As1, iNOS and S-nitrosocystein), cell surface staining was followed by cell fixation and permeabilization with the Cytofix/Cytoperm kit (BD Biosciences) according to the manufacturer's instructions. For staining, the present inventors used a lineage cocktail of antibodies anti-CD45-APC, Anti-CD64-PE, Anti-CD11c-PB, Anti-326-APC cy7, Anti CD31-PE cy7 (all from BioLegend). After staining for cell surface antigens, intracellular NO was detected by incubation of cells for 15 min at 37° C. with 10 μM DAF-FM diacetate followed by extensive washing, according to the manufacturer's instructions (Molecular Probes). Staining without addition of the DAF-FM probe was considered to be the baseline for gating the positive population. As1 was detected using anti-As1-ALEXA FLUOR® 488 (BD Biosciences), iNOS using anti-iNOS followed by anti-rat 488 (Jackson ImmunoResearch), and nitrosylation using anti-S-nitrosocystein (from abcam) followed by anti-mouse 488 (Jackson ImmunoResearch).

[6] = then arginine 1%, citrulline 1% or NaNO2 100 mg in drinking water 6 days vs water control, FIG. 3A
[7] = arginine, citrulline or NaNO2 vs water control, FIG. 3C
[8] = arginine, citrulline or NaNO2 vs water control
[9] = arginine, citrulline or NaNO2 vs water control, FIG. 3B

Row | Compound | weight loss [1, 6] | colon length [1, 7] | Histology score for colitis [1, 8] | clinical improvement in colitis severity ([1]; FIG. 3A-D) | As1 expression in distal colon sections (intestine, enterocytes) [2] | endoscopic colitis score [3, 9] | weight loss ([1]; then fisetin 1 mg IP twice, citrulline 1% in drinking water or both vs DMSO control, FIG. 4B) | effectiveness in alleviating colitis severity compared among arginine, citrulline and NO donor ([1]; FIG. 3A-D) | colon length ([1]; fisetin, citrulline or both vs DMSO control, FIG. 4D) | histological score ([1]; fisetin, citrulline or both vs DMSO control, FIG. 4E) | apoptosis in the intestine [4] | induction of NO synthesis in enterocytes, citrulline compared with arginine ([5]; FIGS. 3I-J) | NO levels in enterocytes (colon epithelial cells) ([5]; after colitis induction, treated vs control, FIGS. 3F-J, 4F-I) | endoscopic colitis score, citrulline in comparison to arginine ([3]; FIG. 3B) | endoscopic colitis score ([3]; fisetin, citrulline or both vs DMSO control, FIG. 4C)
1 | O=N[O-].[Na+] [NaNO2] | significant weight loss reduction in the control group compared to the three treatments | significant reduction in colon length in the control group as compared to the treated colons | significantly lower | significant clinical improvement | reduced expression | Significant improvement | – | – | – | – | – | – | – | – | –
2 | NC(=O)NCCCC(N)C(=O)O (stereo not drawn) [citrulline, 2-Amino-5-(carbamoylamino)pentanoic acid] | significant weight loss reduction in the control group compared to the three treatments | significant reduction in colon length in the control group as compared to the treated colons | significantly lower | significant clinical improvement | upregulated; also recorded: more pronounce expression | Significant improvement | significant weight loss is documented in the control group compared to the treated mice | the most effective | significant longer | significant reduction | decreased apoptosis; also recorded: increased apoptosis in the control intestine as compare to colon taken from mice treated with citrulline | more effective than arginine | increased generation of NO | more beneficial treatment | significant improvement
3 | N=C(N)NCCC[C@H](N)C(=O)O [arginine] | significant weight loss reduction in the control group compared to the three treatments | significant reduction in colon length in the control group as compared to the treated colons | significantly lower | significant clinical improvement | upregulated | Significant improvement | – | – | – | – | – | – | – | – | –

— patent US20190314312A1, “COMBINATION THERAPY TO INCREASE ENDOGENOUS NITRIC OXIDE (NO) SYNTHESIS” (Yeda Research and Development Co. Ltd., priority 2016, published 2019)
